# Assay results as given in publication PMC9491098, “Discovery of novel drug-like antitubercular hits targeting the MEP pathway enzyme DXPS by strategic application of ligand-based virtual screening” (Chemical Science, 2022).
# “And” between values parts separate entries of the source, which are not always exact repeats. Equal entries are not always repeated. Where two headings read alike, the source gives them in different places.
# How the values were obtained:
# [1] = target: T1, MtDXPS (Mycobacterium tuberculosis, UniProt P9WNS3); assay: biochemical
# [2] = target: T2, DrDXPS (WT) (Deinococcus radiodurans, UniProt Q9RUB5); assay: biochemical; assay type: biochemical; settings: for IC50: DrDXPS (WT) IC50, Fig. 2B; for inhibition at 100 µM: read-out: Inhibition % at 100 μM, Fig. 5E, DrDXPS (WT)
# [3] = target: T1, MtDXPS; settings: cited from earlier work
# [4] = target: T2, DrDXPS (WT); settings: pseudo-inhibitors; cited from earlier work
# [5] = tested on: P. falciparum; settings: Target pathogen: P. falciparum; Fig. 1A; ref 18–26 (fosmidomycin), 15,27–29 (BITZ, TZLP); cited from earlier work
# [6] = tested on: IspD; settings: read-out: Activity on target enzyme: IC50; cited from earlier work
# [7] = target: T1, MtDXPS; assay: biochemical; settings: for inhibitory activity against MtDXPS, SAR statement: SAR discussion of Table 1A–C
# [8] = tested on: mCherry-Mtb H37Rv; assay type: cell-based, Mycobacterium tuberculosis
# [9] = tested on: HepG2; assay: toxicity against human cell lines; assay type: cell-based; settings: HepG2, 48 h, read-out: Toxicity Human cell lines EC50 (μM) HepG2
# [10] = tested on: HEK293; assay: toxicity against human cell lines; assay type: cell-based; settings: HEK293, 48 h, read-out: Toxicity Human cell lines EC50 (μM) HEK293
# [11] = tested on: A549; assay: toxicity against human cell lines; assay type: cell-based; settings: A549, 48 h, read-out: Toxicity Human cell lines EC50 (μM) A549
# [12] = metabolic stability in human liver S9 fraction; settings: pooled liver S9 fraction
# Procedure: For vitro assessment of metabolic stability, 10 µL of each compound (10 µM) was
# incubated with human pooled liver S9-fraction (1 mg/mL, Corning, Corning, NY, USA)
# in a master mix containing 2 mM NADP, 10 mM glucose-6-phosphate, 10 U/mL
# glucose-6-phosphate dehydrogenase, 1 mM UDPGA, 0.1 mM PAPS, 10 mM MgCl2.
# acetonitrile containing diphenhydramine as internal standard at 4 °C. The supernatant
# was used for LC-MS analysis and half life time t1/2 was calculated from decreasing
# concentrations/peak areas.
# LC conditions: samples were analyzed with an Ultimate 3000 HPLC (Thermo Fisher,
# Waltham, MA, USA) coupled to a TSQ Quantum Access Max triple quadrupole mass
# spectrometer (Thermo Fisher, Waltham, MA, USA) in SRM mode. Analysis was
# performed on a Nucleodur C18 Pyramid column (3 µm, 2x150 mm, Macherey-Nagel,
# Düren, Germany) with a flow of 0.6 mL/min and a water (0.1% formic acid) and
# acetonitrile (0.1% formic acid) eluent system. Gradient as follows: 10% acetonitrile for
# 1 min, 10–90% acetonitrile over 0.7 min, 90% acetonitrile for 1.8 min, equilibration at
# 10% acetonitrile for 1 min.
# MS conditions: calibration of mass spectrometer parameters was performed
# individually for each compound:
# [13] = target: T1, MtDXPS; assay: microscale thermophoresis (MST) dissociation constant; assay type: binding; settings: Fig. 4F
# Procedure: ETB + A <===> ETAB : Ka2 (Ka2 is the dissociation constant of pyruvate with […]
# ETA + B <===> ETAB : Kb2 (Kb2 is the dissociation constant of ThDP with DXPS) E + I <===> EI* : Ki* (Ki* is the Morrison inhibition constant of inhibitor with apoDXPS) ETAB ---> ET + P : kcat (kcat is the catalytic constant of DXPS) […]
# microscale thermophoresis (MST)
# MST measurements were performed on a Monolith NT.115 (NanoTemper
# Technologies GmbH, Germany) instrument using red-dye-NHS fluorescent labeling.
# Each purified MtDXPS sample was labeled with red-dye-NHS second generation dye, according to the supplied protocol. Measurements were performed in 100 m M Tris-HCl (pH 7.6) containing 0.05% Tween-20 and 5% DMSO in premium treated capillaries.
# The final concentration of each labeled protein in the assay was 100 n M. The inhibitors were titrated in 1:1 dilutions according to the supplier’s recommendations. All binding reactions were incubated at room temperature for 30 min before loading, and then pre-incubated for 5 min at room temperature after loading into the capillaries. Experiments were performed in duplicates, using 40% LED power, medium MST power, laser on time 20 s, and laser off time 3 s. Kds of the inhibitors were extracted from raw data at a 10–20 s on time according to the manufacturer’s instructions. A denaturation test was performed to exclude any nonspecific spectral interactions between the inhibitors […]
# The solutions were vortexed, and then the rest of the assay components was added in the following order: HEPES, pH = 8 (100 m M), bovine serum albumin (1 mg/mL), cysteine (2 mM), ThDP (0.325 μM), coenzyme-A (150 μM), TCEP (300 μM), pyruvate (150 μM) and MgCl2 (1 mM). […] Porcine PDH (final concentration of 0.01 U/ mL) was then added to initiate the reactions, which were monitored spectrophotometrically by measuring the […]
# [14] = tested on: E. coli strain BL21 (DE3) pQEYAEM; assay: microbe, parasite or virus in culture; assay type: cell-based; settings: Escherichia coli, Fig. 6A
# [15] = tested on: E. coli strain BL21 (DE3) pET22b-H6[…]; assay: microbe, parasite or virus in culture; assay type: cell-based; settings: Escherichia coli, Fig. 6B
# [16] = tested on: M. tuberculosis strains; assay: MIC against multiple M. tuberculosis strains, absolute concentration method on 7H10 agar; assay type: cell-based; settings: Mycobacterium tuberculosis
# [17] = tested on: E. coli TolC; assay: microbe, parasite or virus in culture; assay type: cell-based; settings: Escherichia coli
# [18] = target: T1, MtDXPS
# [19] = tested on: E. coli; settings: Fig. 1A; cited from earlier work
# [20] = target: DXPS; settings: cited from earlier work
# [21] = tested on: IspC; settings: Target enzyme: IspC; Fig. 1A; cited from earlier work
# [22] = tested on: IspF; settings: read-out: Activity on target enzyme: IC50; cited from earlier work
# [23] = [IPTG] 0.5 mM (E. coli IspC overexpression)
# [24] = [IPTG] 0.5 mM (MtDXPS overexpression)
# T2 sequence (Q9RUB5 whole entry, looked up): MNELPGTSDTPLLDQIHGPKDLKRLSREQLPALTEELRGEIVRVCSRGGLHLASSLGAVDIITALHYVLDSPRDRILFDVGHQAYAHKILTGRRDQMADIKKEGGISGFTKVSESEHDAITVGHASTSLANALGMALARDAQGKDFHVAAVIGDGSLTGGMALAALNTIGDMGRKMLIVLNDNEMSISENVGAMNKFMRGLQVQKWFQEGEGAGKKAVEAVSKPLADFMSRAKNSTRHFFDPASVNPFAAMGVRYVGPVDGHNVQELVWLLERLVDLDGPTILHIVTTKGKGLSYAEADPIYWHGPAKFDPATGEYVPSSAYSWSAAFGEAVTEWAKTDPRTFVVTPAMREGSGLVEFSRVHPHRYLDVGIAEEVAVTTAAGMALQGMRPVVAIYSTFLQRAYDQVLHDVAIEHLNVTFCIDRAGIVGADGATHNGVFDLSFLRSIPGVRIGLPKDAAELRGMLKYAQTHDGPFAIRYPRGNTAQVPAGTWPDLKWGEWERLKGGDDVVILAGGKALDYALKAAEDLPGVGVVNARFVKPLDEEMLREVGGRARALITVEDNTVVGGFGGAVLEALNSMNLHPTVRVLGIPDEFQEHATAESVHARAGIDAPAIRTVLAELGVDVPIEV
# T1 sequence (P9WNS3 whole entry, looked up): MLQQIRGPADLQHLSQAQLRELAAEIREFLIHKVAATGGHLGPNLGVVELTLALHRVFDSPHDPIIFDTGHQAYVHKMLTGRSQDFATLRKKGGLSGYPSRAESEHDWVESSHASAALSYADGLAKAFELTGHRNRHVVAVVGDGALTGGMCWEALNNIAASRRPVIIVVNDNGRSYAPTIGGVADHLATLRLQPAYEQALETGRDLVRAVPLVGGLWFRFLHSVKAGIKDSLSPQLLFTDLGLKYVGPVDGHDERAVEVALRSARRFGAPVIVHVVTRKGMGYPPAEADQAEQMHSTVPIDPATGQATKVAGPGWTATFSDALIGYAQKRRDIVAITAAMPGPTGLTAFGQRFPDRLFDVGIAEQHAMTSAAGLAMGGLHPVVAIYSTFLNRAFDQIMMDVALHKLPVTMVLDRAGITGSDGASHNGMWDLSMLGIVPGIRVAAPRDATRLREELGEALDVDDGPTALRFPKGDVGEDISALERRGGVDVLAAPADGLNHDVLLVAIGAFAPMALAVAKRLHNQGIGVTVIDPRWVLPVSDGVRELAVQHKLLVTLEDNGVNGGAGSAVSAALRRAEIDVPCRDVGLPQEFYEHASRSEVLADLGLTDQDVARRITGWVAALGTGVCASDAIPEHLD
smiles,measurement,setting,value
"Cc1ncc(Cc2csc(CCO)c2C)c(N)n1 [DZT, deazathiamine, reference compound]",IC50,[1],> 4000 µM
same,IC50,"[2]; [ThDP] 0.1 μM (1.6x Km), [PYR] 0.5 mM (2.4x), [D-GAP] 0.5 mM (2.9x)",273 ± 16 µM
same,IC50,"[2]; [ThDP] 0.5 μM (8x Km), [PYR] 0.5 mM (2.4x), [D-GAP] 1.0 mM (5.8x)",1210 ± 156 µM
same,IC50,"[2]; [ThDP] 0.5 μM (8x Km), [PYR] […] (1.2x), [D-GAP] 0.5 mM (2.9x)",486 ± 136 µM
same,IC50,"[2]; reference condition [ThDP] 0.5 μM (8x Km), [PYR] 0.5 mM (2.4x), [D-GAP] 0.5 mM (2.9x)",845 ± 177 µM
same,mode of inhibition on DrDXPS,"[2]; MOI study, Fig. 2B","competitive with ThDP, PYR and D-GAP"
same,activity against MtDXPS,[3],not active
same,inhibition of DrDXPS,[4],weak inhibitor
Cc1ccc(-n2sc3ccccc3c2=O)cc1S(=O)(=O)N1CCOCC1 [BITZ],EC50,[5],4.3 µM
same,IC50,[6],0.45 µM
OCc1cn(Cc2ccc(Cl)c(Cl)c2)c2ccc(F)cc12 [Compound 17],"inhibitory activity against MtDXPS, SAR statement",[7],more active than their parent molecules
same,Ki,"[7]; Table 1A, indole derivatives, MtDXPS, read-out: K i*",0.4 ± 0.06 µM
same,activity against M. tuberculosis strains,[8],no activity
same,EC50,[9],> 50 µM
same,EC50,[10],> 50 µM
same,EC50,[11],> 50 µM
same,half-life at 10 µM,[12],27 ± 10 min
OCc1cn(Cc2ccc(Cl)c(Cl)c2)c2ccccc12 [Compound 7],IC50,[1]; IC50 (μM),34 ± 4 µM
same,IC50,[1]; IC50 against MtDXPS,34 µM and 82 µM
same,IC50,[1]; IC50 against MtDXPS (MOI study),12 µM and 34 µM and 33 µM and 59 µM
same,mode of inhibition on MtDXPS,"[1]; MOI study, comparison of IC50 under varied [ThDP], [PYR], [D-GAP]","competitive with ThDP and D-GAP, but non-competitive with PYR"
same,equilibration time (slow-binding),"[1]; time-dependent progress curves, Fig. 4A, inhibitor 100 µM",~100 s
same,inhibition at 100 µM,"[2]; [ThDP] 0.1 μM (1.6x Km), [PYR] 0.5 mM (2.4x), [D-GAP] […] (1.5x)",63 ± 4%
same,inhibition at 100 µM,"[2]; [ThDP] 0.1 μM (1.6x Km), [PYR] […] (1.2x), [D-GAP] 0.5 mM (2.9x)",51 ± 3%
same,inhibition at 100 µM,"[2]; [ThDP] 0.1 μM (1.6x Km), [PYR] […] (1.2x), [D-GAP] […] (1.5x)",61 ± 5%
same,inhibition at 100 µM,"[2]; [ThDP] 0.2 μM (3.2x Km), [PYR] […] (1.2x), [D-GAP] […] (1.5x)",48 ± 4%
same,Ki,"[7]; K i* (μM), Table 1A, indole derivatives, MtDXPS",1.3 ± 0.2 µM
same,Ki,"[7]; Morrison constant Ki* against MtDXPS, two-step tight-binding Morrison model, Dynafit, text and Fig. 4C–E",1.29 µM
same,Kd,[13],1.37 µM
same,MIC,[14]; [IPTG] 0 mM,13 ± 1 µM
same,MIC,[14]; [23],10 ± 2 µM
same,MIC,[15]; [IPTG] 0 mM,10 ± 3 µM
same,MIC,[15]; [24],14 ± 2 µM
same,MIC,[16]; read-out: Antitubercular activity Strain & MIC (μM) A,10 µM
same,MIC,[16]; read-out: Antitubercular activity Strain & MIC (μM) B,10 µM
same,MIC,[16]; read-out: Antitubercular activity Strain & MIC (μM) C,5 µM
same,MIC,[16]; read-out: Antitubercular activity Strain & MIC (μM) D,5 to 10 µM
same,MIC,[16]; read-out: Antitubercular activity Strain & MIC (μM) E,5 to 10 µM
same,MIC,[16]; read-out: Antitubercular activity Strain & MIC (μM) F,5 to 10 µM
same,EC50,[9],0.8 ± 0.2 µM
same,EC50,[10],16 ± 7 µM
same,EC50,[11],~50 µM
same,MIC,[17],22 ± 1 µM
same,hit validation (false-positive check),[18],true inhibitors
same,half-life at 10 µM,[12],6 ± 2 min
"CCCCOP(=O)(O)C(C)=O [BAP, Butylacetylphosphonate]",Activity on target pathogen: MIC,[19],5 µM
same,Ki,"[20]; read-out: Activity on target enzyme: Ki, Fig. 1A",5.6 µM
"O=CN(O)CCCP(=O)(O)O [Fosmidomycin, fosmidomycin, reference compound]",MIC,[14]; [IPTG] 0 mM,76 ± 14 µM
same,MIC,[14]; [23],> 1000 µM
same,MIC,[15]; [IPTG] 0 mM,56 ± 8 µM
same,MIC,[15]; [24],59 ± 10 µM
same,EC50,[5],0.98 µM
same,IC50,[21],0.35 µM
CCOC(=O)C1=C(C)N=c2s/c(=C\c3cc(Br)c(O)c(Br)c3)c(=O)n2C1c1cccs1 (stereo not drawn) [TZLP],EC50,[5],1.5 µM
same,IC50,[22],9.6 µM
Nc1ccc(/C(Cc2ccc(Cl)cc2)=N/O)c(O)c1 [Compound 25],"inhibitory activity against MtDXPS, SAR statement",[7],more active than their parent molecules
same,Ki,"[7]; Table 1B, oxime derivatives, MtDXPS, read-out: K i*",0.1 ± 0.03 µM
same,activity against M. tuberculosis strains,[8],retains some activity
same,EC50,[9],0.73 ± 0.12 µM
same,EC50,[10],18 ± 5.5 µM
same,EC50,[11],~50 µM
same,half-life at 10 µM,[12],56 ± 0.4 min
"CC1(C)C(=O)ON(Cc2ccccc2Cl)C1=O [Ketoclomazone, ketoclomazone]",IC50,"[20]; read-out: Activity on target enzyme: IC50, Fig. 1A",1 µM
